Laboratory results: paper PMC6445228, “Synthesis and biological evaluation of anti-Toxoplasma gondii activity of a novel scaffold of thiazolidinone derivatives” (Journal of Enzyme Inhibition and Medicinal Chemistry, 2017)
Like-named read-outs stand apart in the source and are kept apart here.

Legend:
[1] = tested on: T. gondii RH-2 F tachyzoites; test: Five-day growth inhibition assay (tachyzoite growth, colorimetric); format: cell-based, Toxoplasma gondii; conditions: 120 h, T. gondii RH-2 F in HFF, three experiments; for IC50: read-out: IC50, median inhibitory concentration, a measure of tachyzoite inhibition; for IC90: read-out: IC90, concentration at which 90% of the tachyzoite growth is inhibited
Protocol: (§1) Using published methods[8]^,[19], all of the prepared N-substituted thiazolidinones derivatives were evaluated in vitro for (i) host cell cytotoxicity as well as for the ability to inhibit tachyzoite growth over a period of 5 days (Table 1), for (ii) the ability to inhibit tachyzoite invasion of host cells (Figure 1), and for (iii) the ability to inhibit intracellular tachyzoite replication (Figure 2).
(§2) Compounds were tested for the ability to inhibit in vitro tachyzoite (T. gondii RH-2 F (50839); ATCC, VA) and human foreskin fibroblast (HFF; ATCC) growth for 120 h using a published colorimetric assay[8]^,[19]. Stock solutions of all compounds were 10 mM in DMSO. Serial 0.5 log10 dilutions (320–0.032 μM) of each compound were tested. Data from three separate experiments were analysed and the IC50, IC90, and TD50 calculated using Calcusyn software (Biosoft, Cambridge, UK). The therapeutic index (TI), a measure of specific anti-T. gondii activity, was calculated with the formula shown under Table 1.
We explored the chemical space and the influence on the biological activity of different groups (substituted aromatic and bicyclic rings) at the lactam NH of the core nucleus. […] In the five-day growth inhibition assay, compounds were added only once, just before addition of tachyzoites, and thus were present for multiple cycles, up to 20, of parasite replication.

[2] = tested on: human foreskin fibroblast (HFF); test: Five-day growth inhibition assay, host cell cytotoxicity; conditions: 120 h
Protocol: as §1, §2

[3] = HFF cells, top concentration 320 μM

SMILES	melting point	IC50 ([1]; Toxoplasma gondii)	IC90 ([1]; Toxoplasma gondii)	TD50, median toxicity dose, a measure of cytotoxicity against host cells ([2]; human)	IC50 [1]	IC90 [1]	TD50, median toxicity dose, a measure of cytotoxicity against host cells [2, 3]
CCCCC(CC)=NN=C1SCC(=O)N1Cc1cccc(F)c1 [Compound 13, 3-(3-Fluorobenzyl)-2-((heptan-3-ylidene)hydrazono)thiazolidin-4-one]	30 to 31 °C	18 µM	99 µM	246 µM			
CC(=NN=C1SCC(=O)N1Cc1ccccc1Cl)c1ccc[cH-]1.[Fe+2].c1cc[cH-]c1 [Compound 21, 3-(2-Chlorobenzyl)-2-((1-(ferrocen-2-yl)ethylidene)hydrazono)thiazolidin-4-one]					9 µM	24 µM	≥320 µM
CC(=NN=C1SCC(=O)N1Cc1cccc(F)c1)c1cccs1 [Compound 14, 3-(3-Fluorobenzyl)-2-((1-(thiophen-2-yl)ethylidene)hydrazono)thiazolidin-4-one]	84 to 85 °C	45 µM	147 µM	178 µM			
CC(=NN=C1SCC(=O)N1Cc1cccc(Cl)c1)c1cccs1 [Compound 23, 3-(3-Chlorobenzyl)-2-((1-(thiophen-2-yl)ethylidene)hydrazono)thiazolidin-4-one]	129 to 131 °C	51 µM	256 µM	147 µM			
CCCCC(CC)=NN=C1SCC(=O)N1Cc1ccc(F)cc1 [Compound 16, 3–(4-Fluorobenzyl)-2-((heptan-3-ylidene)hydrazono)thiazolidin-4-one]		29 µM	107 µM	192 µM			
CCCCC(CC)=NN=C1SCC(=O)N1Cc1ccccc1F [Compound 10, 3-(2-Fluorobenzyl)-2-((heptan-3-ylidene)hydrazono)thiazolidin-4-one]		24 µM	104 µM	90 µM			
CCCCC(CC)=NN=C1SCC(=O)N1Cc1ccccc1[N+](=O)[O-] [Compound 1, 2-((Heptan-3-ylidene)hydrazono)-3-(2-nitrobenzyl)thiazolidin-4-one]	67 to 69 °C	20 µM	111 µM	236 µM			
CC(=NN=C1SCC(=O)N1Cc1cccc(Cl)c1)c1ccc[cH-]1.[Fe+2].c1cc[cH-]c1 [Compound 24, 3-(3-Chlorobenzyl)-2-((1-(ferrocen-2-yl)ethylidene)hydrazono)thiazolidin-4-one]					8 µM	17 µM	≥320 µM
CCCCC(CC)=NN=C1SCC(=O)N1Cc1cccc2ccccc12 [Compound 28, 2-((Heptan-3-ylidene)hydrazono)-3-(naphthalen-1-ylmethyl)thiazolidin-4-one]		37 µM	138 µM	271 µM			
O=C1C(O)=C([C@H]2CC[C@H](c3ccc(Cl)cc3)CC2)C(=O)c2ccccc21 [Atovaquone, reference compound]		0.2 µM	2 µM	24 µM			
CC(=NN=C1SCC(=O)N1Cc1ccc(F)cc1)c1cccs1 [Compound 17, 3-(4-Fluorobenzyl)-2-((1-(thiophen-2-yl)ethylidene)hydrazono)thiazolidin-4-one]	118 to 123 °C	72 µM	312 µM	≥320 µM			
CC(=NN=C1SCC(=O)N1Cc1ccc(Cl)cc1)c1cccs1 [Compound 26, 3-(4-Chlorobenzyl)-2-((1-(thiophen-2-yl)ethylidene)hydrazono)thiazolidin-4-one]	146 to 151 °C	81 µM	211 µM	≥320 µM			
CC(=NN=C1SCC(=O)N1CN1C(=O)c2ccccc2C1=O)c1ccc[cH-]1.[Fe+2].c1cc[cH-]c1 [Compound 33, 2-((4-Oxo-2-((1-(ferrocen-2-yl)ethylidene)hydrazono)thiazolidin-3-yl)methyl)isoindoline-1,3-dione]					82 µM	286 µM	138 µM
CC(=NN=C1SCC(=O)N1Cc1ccccc1F)c1cccs1 [Compound 11, 3-(2-Fluorobenzyl)-2-((1-(thiophen-2-yl)ethylidene)hydrazono)thiazolidin-4-one]	80 to 85 °C	25 µM	103 µM	82 µM			
CCCCC(CC)=NN=C1SCC(=O)N1Cc1ccccc1Cl [Compound 19, 3-(2-Chlorobenzyl)-2-((heptan-3-ylidene)hydrazono)thiazolidin-4-one]		39 µM	183 µM	95 µM			
CCCCC(CC)=NN=C1SCC(=O)N1Cc1ccc([N+](=O)[O-])cc1 [Compound 7, 2-((Heptan-3-ylidene)hydrazono)-3-(4-nitrobenzyl)thiazolidin-4-one]		32 µM	128 µM	98 µM			
CCCCC(CC)=NN=C1SCC(=O)N1CN1C(=O)c2ccccc2C1=O [Compound 31, 2-((2-((Heptan-3-ylidene)hydrazono)-4-oxothiazolidin-3-yl)methyl)isoindoline-1,3-dione]		88 µM	402 µM	≥320 µM			
CC(=NN=C1SCC(=O)N1Cc1cccc([N+](=O)[O-])c1)c1cccs1 [Compound 5, 3-(3-Nitrobenzyl)-2-((1-(thiophen-2-yl)ethylidene)hydrazono)thiazolidin-4-one]	165 to 170 °C	52 µM	171 µM	≥320 µM			
CC(=NN=C1SCC(=O)N1Cc1ccccc1Cl)c1cccs1 [Compound 20, 3-(2-Chlorobenzyl)-2-((1-(thiophen-2-yl)ethylidene)hydrazono)thiazolidin-4-one]	100 to 102 °C	34 µM	112 µM	84 µM			
CC(=NN=C1SCC(=O)N1Cc1ccccc1[N+](=O)[O-])c1cccs1 [Compound 2, 3-(2-Nitrobenzyl)-2-((1-(thiophen-2-yl)ethylidene)hydrazono)thiazolidin-4-one]	150 to 151 °C	37 µM	155 µM	280 µM			
CC(=NN=C1SCC(=O)N1Cc1cccc([N+](=O)[O-])c1)c1ccc[cH-]1.[Fe+2].c1cc[cH-]c1 [Compound 6, 3-(3-Nitrobenzyl)-2-((1-(ferrocen-2-yl)ethylidene)hydrazono)thiazolidin-4-one]					24 µM	152 µM	≥320 µM
CCCCC(CC)=NN=C1SCC(=O)N1Cc1cccc(Cl)c1 [Compound 22, 3-(3-Chlorobenzyl)-2-((heptan-3-ylidene)hydrazono)thiazolidin-4-one]		19 µM	106 µM	165 µM			
CCCCC(CC)=NN=C1SCC(=O)N1Cc1cccc([N+](=O)[O-])c1 [Compound 4, 2-((Heptan-3-ylidene)hydrazono)-3–(3-nitrobenzyl)thiazolidin-4-one]		44 µM	138 µM	68 µM			
CCCCC(CC)=NN=C1SCC(=O)N1Cc1ccc(Cl)cc1 [Compound 25, 3-(4-Chlorobenzyl)-2-((heptan-3-ylidene)hydrazono)thiazolidin-4-one]		51 µM	131 µM	244 µM			
